Test results as given in patent US5807541A, “NSAID/fluoride periodontal compositions and methods” (Sepracor, Inc., priority 1996, dated 1998).
pIC50: −log10 of the molar value. Where two headings read alike, the source gives them in different places.

Legend:
[1] = test system: G proteins; details: under certain circumstances; cited from earlier work
[2] = test system: dental caries; details: professionally applied topical fluoride, dentifrices and mouthwashes; high risk patients; cited from earlier work
[3] = test system: PGE2 secretion in human promyelocytic leukemia cells (HL-60 cells); experiment: PGE2 secretion in human promyelocytic leukemia (HL-60) cells (A23187-induced), fluoride and NSAIDs alone or combined; details: for % stimulation of A23187-induced PGE2 secretion / % Inhibition of A23187-induced PGE2 secretion: mean of two determinations; for % inhibition of PGE2 / % stimulation of PGE2 (value in parentheses): Table II;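 on all read-outs here: fluoride given as NaF, each condition run in duplicate, signals corrected for background and referenced to control, IC50 obtained by nonlinear regression Hill fitting of the curve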
[4] = test system: prostaglandin production in endothelial cells; details: under certain circumstances; cited from earlier work
[5] = Homo sapiens, HL-60, read-out: % inhibition of PGE2
[6] = Homo sapiens, HL-60, read-out: IC50, inhibition of PGE2 secretion, summary of Tables III and IV
[7] = ketoprofen enantiomer 10^-7 M + F 0.05%
[8] = ketoprofen enantiomer 10^-7 M + F 0.1%
[9] = ketoprofen enantiomer 10^-7 M + F 0.5%
[10] = ketoprofen enantiomer 10^-7 M, F 0%
[11] = ketoprofen enantiomer 10^-8 M + F 0.05%
[12] = ketoprofen enantiomer 10^-8 M + F 0.1%
[13] = ketoprofen enantiomer 10^-8 M + F 0.5%
[14] = ketoprofen enantiomer 10^-8 M, F 0%
[15] = ketoprofen enantiomer 10^-9 M + F 0.05%
[16] = ketoprofen enantiomer 10^-9 M + F 0.1%
[17] = ketoprofen enantiomer 10^-9 M + F 0.5%
[18] = ketoprofen enantiomer 10^-9 M, F 0%
[19] = ketoprofen enantiomer 10^-10 M + F 0.05%, 0.0001 µM
[20] = ketoprofen enantiomer 10^-10 M + F 0.05%
[21] = ketoprofen enantiomer 10^-10 M + F 0.1%
[22] = ketoprofen enantiomer 10^-10 M + F 0.5%
[23] = ketoprofen enantiomer 10^-10 M, F 0%

For `[F-].[Na+]` [fluoride, sodium fluoride], the “activation of G proteins (in words)” value [1] is listed as “activate G proteins”, the “prevention of dental caries (in words)” value [2] is listed as “effective in preventing dental caries among high risk patients” and the “PGE2 secretion, % Control, 1st Value” ([3]; F 0.0001% (52 μM)) is listed as 80.1%. For the same compound, the “PGE2 secretion, % Control, 2nd value” ([3]; F 0.0001% (52 μM)) was 87.4%, the “PGE2 secretion, % Control, mean” value ([3]; F 0.0001% (52 μM)) was 83.7% and the “PGE2 secretion, % Control, 1st Value” ([3]; F 0.001% (520 μM)) was 94.1%. For the same compound, the “PGE2 secretion, % Control, 2nd value” ([3]; F 0.001% (520 μM)) was 74.9%, the “PGE2 secretion, % Control, mean” value ([3]; F 0.001% (520 μM)) was 84.5% and the “PGE2 secretion, % Control, 1st Value” ([3]; F 0.01% (5.2 mM)) was 117.7%. The “PGE2 secretion, % Control, 2nd value” ([3]; F 0.01% (5.2 mM)) was 99.8%, the “PGE2 secretion, % Control, mean” value ([3]; F 0.01% (5.2 mM)) was 108.7% and the “PGE2 secretion, % Control, 1st Value” ([3]; F 0.02% (10.4 mM)) was 188.7%. For the same compound, the “PGE2 secretion, % Control, 2nd value” ([3]; F 0.02% (10.4 mM)) was 208.8%, the “PGE2 secretion, % Control, mean” value ([3]; F 0.02% (10.4 mM)) was 198.8% and the “PGE2 secretion, % Control, 1st Value” ([3]; F 0.05% (26 mM)) was 157.9%. For the same compound, the “PGE2 secretion, % Control, 2nd value” ([3]; F 0.05% (26 mM)) was 177.3%, the “PGE2 secretion, % Control, mean” value ([3]; F 0.05% (26 mM)) was 167.6% and the “stimulation factor, A23187-induced PGE2 secretion” value (shortened to “stimulation factor”) ([3]; F 0.05%, ketoprofen 0) was 1.16 ×. For the same compound, the “% stimulation of A23187-induced PGE2 secretion” value ([3]; F 0.05%, ketoprofen 0) was 16%, the “PGE2 secretion, % Control, 1st Value” ([3]; F 0.07% (36 mM)) was 142.1% and the “PGE2 secretion, % Control, 2nd value” ([3]; F 0.07% (36 mM)) was 142.1%. The “PGE2 secretion, % Control, mean” value ([3]; F 0.07% (36 mM)) was 142.1%, the “PGE2 secretion, % Control, 1st Value” ([3]; F 0.1% (52 mM)) was 115.1% and the “PGE2 secretion, % Control, 2nd value” ([3]; F 0.1% (52 mM)) was 112.6%. The “PGE2 secretion, % Control, mean” value ([3]; F 0.1% (52 mM)) was 113.9%, the “% Inhibition of A23187-induced PGE2 secretion” value ([3]; F 0.1%, ketoprofen 0) was 26% and the “PGE2 secretion, % Control, 1st Value” ([3]; F 0.2% (104 mM)) was 5.2%. For the same compound, the “PGE2 secretion, % Control, 2nd value” ([3]; F 0.2% (104 mM)) was 8.9%, the “PGE2 secretion, % Control, mean” value ([3]; F 0.2% (104 mM)) was 7.0% and the “PGE2 secretion, % Control, 1st Value” ([3]; F 0.3% (156 mM)) was 4.9%. For the same compound, the “PGE2 secretion, % Control, 2nd value” ([3]; F 0.3% (156 mM)) was 3.1%, the “PGE2 secretion, % Control, mean” value ([3]; F 0.3% (156 mM)) was 4.0% and the “PGE2 secretion, % Control, 1st Value” ([3]; F 0.5% (260 mM)) was 0.5%. For the same compound, the “PGE2 secretion, % Control, 2nd value” ([3]; F 0.5% (260 mM)) was 1.7%, the “PGE2 secretion, % Control, mean” value ([3]; F 0.5% (260 mM)) was 1.1% and the “% Inhibition of A23187-induced PGE2 secretion” value ([3]; F 0.5%, ketoprofen 0) was 96%. The “production of prostaglandins (in words)” value ([3]; concentration range employed for the prevention of dental caries) was “stimulates the production of prostaglandins”, the “maximum stimulation of PGE2 secretion” value ([3]; fluoride 0.02%) was 99% and the “effect of fluoride on the inhibitory effects of R- and S-ketoprofen (in words)” value ([3]; fluoride 26 mM) was “decrease of the inhibitory effects of R- and S-ketoprofen”. For the same compound, the “effect of fluoride in combination with R- and S-ketoprofen (in words)” value ([3]; fluoride 260 mM) was “amplifies its inhibitory effects”, the “effect on PGE2 secretion (in words)” value ([3]; fluoride above 0.2%) was “completely inhibits PGE2 secretion” and the “stimulation of PGE2 production” value ([3]; fluoride alone, 26 mM (0.05%)) was 108%. For the same compound, the “inhibition of PGE2 production” value ([3]; fluoride alone, 52 mM) was 12%, the “inhibition of PGE2 production” value ([3]; fluoride alone, 260 mM) was 92% and the “effect on stimulated PGE2 secretion (in words)” value ([3]; fluoride below about 5 mM (below about 0.01% w/v)) was “no significant effect”. For the same compound, the “effect on PGE2 secretion (in words)” value ([3]; fluoride from 0.0001 to 0.01%) was “no effect”, the “effect on PGE2 secretion (in words)” value ([3]; fluoride from 0.02 to 0.07%) was “induces stimulation” and the “effect on PGE2 secretion (in words)” value ([3]; fluoride ion above about 50 mM (above about 0.1% w/v)) was “inhibitory to PGE2 secretion”. The “peak production of PGE2, % of control” value ([3]; fluoride ion at about 10 mM) was 200%, the “production of PGE2 (in words)” value ([3]; fluoride ion between about 5 and about 50 mM) was “stimulates the production of prostaglandin E2” and the “prostaglandin production in endothelial cells (in words)” value [4] was “induce prostaglandin production”.

In the case of `CC(C(=O)O)c1cccc(C(=O)c2ccccc2)c1` (racemic) [ketoprofen], the “inhibition of PGE2 (in words)” value ([3]; 10^-10 M ketoprofen alone) was “undetected”, the “PGE2 production (in words)” value ([3]; 10^-10 M ketoprofen at 260 mM fluoride) was “totally inhibited” and the inhibition at 0.001 µM [3, 5] was 40%. It also gave an inhibition at 0.01 µM [3, 5] of 63%, an inhibition at 0.1 µM [3, 5] of 82% and a pIC50 ([3]; Homo sapiens, HL-60, read-out: IC50, PGE2 production, racemic ketoprofen + 52 mM fluoride) of 7.93. For the same compound, the pIC50 ([3]; Homo sapiens, HL-60, read-out: IC50, PGE2 production, racemic ketoprofen alone (no F)) was 8.55, the inhibition at 0.0001 µM ([3]; Homo sapiens, HL-60, read-out: inhibition of PGE2 levels) was 26% and the “% inhibition of PGE2” value ([3]; racemic ketoprofen 10^-7 M + fluoride 26 mM) was 66%. The “% inhibition of PGE2” value ([3]; racemic ketoprofen 10^-7 M + fluoride 52 mM) was 85%, the “% inhibition of PGE2” value ([3]; racemic ketoprofen 10^-7 M + fluoride 260 mM) was 98% and the “% inhibition of PGE2” value ([3]; racemic ketoprofen 10^-8 M + fluoride 52 mM) was 46%. The “% inhibition of PGE2” value ([3]; racemic ketoprofen 10^-8 M + fluoride 260 mM) was 97%, the “% stimulation of PGE2 (value in parentheses)” value ([3]; racemic ketoprofen 10^-9 M + fluoride 26 mM) was 125% and the “% inhibition of PGE2” value ([3]; racemic ketoprofen 10^-9 M + fluoride 52 mM) was 11%. The “% inhibition of PGE2” value ([3]; racemic ketoprofen 10^-9 M + fluoride 260 mM) was 101%, the “% stimulation of PGE2 (value in parentheses)” value ([3]; racemic ketoprofen 10^-10 M + fluoride 26 mM) was 125% and the “% inhibition of PGE2” value ([3]; racemic ketoprofen 10^-10 M + fluoride 260 mM) was 102%. The “increase of IC50 for ketoprofen by fluoride” value ([3]; fluoride 0.1% (52 mM) vs ketoprofen alone) was “approximately 4 fold” and the “stimulation induced by F^- (in words)” value ([3]; highest concentration of ketoprofen (10^-7)) was “overcome”.

With `C[C@H](C(=O)O)c1cccc(C(=O)c2ccccc2)c1` [(S)-Ketoprofen] the pIC50 [3, 6] was roughly 9.40, the “relative potency, inhibition of PGE2 secretion (in words)” value ([3]; S- vs R-ketoprofen) was “more potent than R-ketoprofen” and the “% Inhibition of A23187-induced PGE2 secretion” value [3, 7] was 95%. The “% Inhibition of A23187-induced PGE2 secretion” value [3, 8] was 98%, the “% Inhibition of A23187-induced PGE2 secretion” value [3, 9] was 99% and the “% Inhibition of A23187-induced PGE2 secretion” value [3, 10] was 96%. The “% Inhibition of A23187-induced PGE2 secretion” value [3, 11] was 82%, the “% Inhibition of A23187-induced PGE2 secretion” value [3, 12] was 89% and the “% Inhibition of A23187-induced PGE2 secretion” value [3, 13] was 98%. The “% Inhibition of A23187-induced PGE2 secretion” value [3, 14] was 89%, the “% Inhibition of A23187-induced PGE2 secretion” value [3, 15] was 35% and the “% Inhibition of A23187-induced PGE2 secretion” value [3, 16] was 54%. The “% Inhibition of A23187-induced PGE2 secretion” value [3, 17] was 100%, the “% Inhibition of A23187-induced PGE2 secretion” value [3, 18] was 70% and the “stimulation factor” value [3, 19] was 1.22 ×. For the same compound, the “% stimulation of A23187-induced PGE2 secretion” value [3, 20] was 27%, the “% Inhibition of A23187-induced PGE2 secretion” value [3, 21] was 18% and the “% Inhibition of A23187-induced PGE2 secretion” value [3, 22] was 100%. For the same compound, the “% Inhibition of A23187-induced PGE2 secretion” value [3, 23] was 10%.

`COc1ccc2c(c1)c(CC(=O)O)c(C)n2C(=O)c1ccc(Cl)cc1` [indomethacin] gave a pIC50 ([3]; Homo sapiens, HL-60, read-out: IC50, A23187-induced PGE2 secretion, in the absence of fluoride) of 9.04.

For `C[C@@H](C(=O)O)c1cccc(C(=O)c2ccccc2)c1` [(R)-Ketoprofen], the pIC50 [3, 6] was roughly 7.00, the “% Inhibition of A23187-induced PGE2 secretion” value [3, 7] was 47% and the “% Inhibition of A23187-induced PGE2 secretion” value [3, 8] was 75%. The “% Inhibition of A23187-induced PGE2 secretion” value [3, 9] was 100%, the “% Inhibition of A23187-induced PGE2 secretion” value [3, 10] was 81% and the “% Inhibition of A23187-induced PGE2 secretion” value [3, 11] was 5%. For the same compound, the “% Inhibition of A23187-induced PGE2 secretion” value [3, 12] was 32%, the “% Inhibition of A23187-induced PGE2 secretion” value [3, 13] was 99% and the “% Inhibition of A23187-induced PGE2 secretion” value [3, 14] was 39%. The “stimulation factor” value ([3]; ketoprofen enantiomer 10^-9 M + F 0.05%, 0.001 µM) was 1.14 ×, the “% stimulation of A23187-induced PGE2 secretion” value [3, 15] was 14% and the “% Inhibition of A23187-induced PGE2 secretion” value [3, 16] was 2%. The “% Inhibition of A23187-induced PGE2 secretion” value [3, 17] was 99%, the “% Inhibition of A23187-induced PGE2 secretion” value [3, 18] was 6% and the “stimulation factor” value [3, 19] was 1.27 ×. The “% stimulation of A23187-induced PGE2 secretion” value [3, 20] was 27%, the “% Inhibition of A23187-induced PGE2 secretion” value [3, 21] was 23% and the “% Inhibition of A23187-induced PGE2 secretion” value [3, 22] was 98%. The “% Inhibition of A23187-induced PGE2 secretion” value [3, 23] was 14%.
